Measurements as given in PubChem BioAssay AID1963866 (Molecular Pharmacology Branch, DTP, NCI, 2024).
Active and inactive are the calls of the source. Rule for the calls: active = viability on the fitted dose curve at most 10% of control; inactive = the rest.

Tested on: PDC KRAS tumor spheroids with HUVEC/MSC, viability
Assay: Anticancer human tumor 349418-098-R-PDC patient-derived lung adenocarcinoma cell line growth inhibition [KRAS2]
Settings: for IC50: curve of first compound; for viability, T/C: stronger effect = lower value
In short: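 KRAS-mutant tumor cells were grown as spheroids with HUVEC endothelial cells and human MSCs as stroma. Targeted agents were tested alone and with KRAS pathway inhibitors. Doses started at or near clinical Cmax, or 10 microM, descending half-log.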

[1] = second compound 0.1 µM, first compound 0.00316 µM
[2] = second compound 0.1 µM, first compound 0.01 µM
[3] = second compound 0.1 µM, first compound 0.0316 µM
[4] = second compound 0.316 µM, first compound 0.00316 µM
[5] = second compound 0.316 µM, first compound 0.01 µM
[6] = second compound 0.316 µM, first compound 0.0316 µM
[7] = second compound 1 µM, first compound 0.00316 µM
[8] = second compound 1 µM, first compound 0.01 µM
[9] = second compound 1 µM, first compound 0.0316 µM
[10] = second compound 3.16 µM, first compound 0.00316 µM
[11] = second compound 3.16 µM, first compound 0.01 µM
[12] = second compound 3.16 µM, first compound 0.0316 µM
[13] = second compound 10 µM, first compound 0.0316 µM
[14] = second compound 0.1 µM, first compound 0.1 µM
[15] = second compound 0.1 µM, first compound 0.316 µM
[16] = second compound 0.1 µM, first compound 1 µM
[17] = second compound 0.1 µM, first compound 3.16 µM
[18] = second compound 0.1 µM, first compound 10 µM
[19] = second compound 0.316 µM, first compound 0.1 µM
[20] = second compound 0.316 µM, first compound 0.316 µM
[21] = second compound 0.316 µM, first compound 1 µM
[22] = second compound 0.316 µM, first compound 3.16 µM
[23] = second compound 0.316 µM, first compound 10 µM
[24] = second compound 1 µM, first compound 0.1 µM
[25] = second compound 1 µM, first compound 0.316 µM
[26] = second compound 1 µM, first compound 1 µM
[27] = second compound 1 µM, first compound 3.16 µM
[28] = second compound 1 µM, first compound 10 µM
[29] = second compound 3.16 µM, first compound 0.1 µM
[30] = second compound 3.16 µM, first compound 0.316 µM
[31] = second compound 3.16 µM, first compound 1 µM
[32] = second compound 3.16 µM, first compound 3.16 µM
[33] = second compound 3.16 µM, first compound 10 µM
[34] = second compound 10 µM, first compound 0.1 µM
[35] = second compound 10 µM, first compound 0.316 µM
[36] = second compound 10 µM, first compound 1 µM
[37] = second compound 10 µM, first compound 3.16 µM
[38] = second compound 10 µM, first compound 10 µM
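Note: spheroids exposed to compounds for seven days before readout.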

CC(=O)Nc1cccc(-n2c(=O)n(C3CC3)c(=O)c3c(Nc4ccc(I)cc4F)n(C)c(=O)c(C)c32)c1 + CNCc1ccccc1-c1csc(C(C)Nc2nc(C)nc3cc(OC)c(OC)cc23)c1
IC50 (second compound 0.1 µM): < 0.0001 µM | IC50 (second compound 0.316 µM): < 0.0001 µM | IC50 (second compound 1 µM): < 0.0001 µM | IC50 (second compound 3.16 µM): < 0.0001 µM | IC50 (second compound 10 µM): < 0.0001 µM | viability, T/C (second compound 0.1 µM, first compound 0.0001 µM): 21.2% | viability, T/C (second compound 0.1 µM, first compound 0.000316 µM): 12.7% | viability, T/C (second compound 0.1 µM, first compound 0.001 µM): 10.5% | viability, T/C [1]: 9.99% | viability, T/C [2]: 8.08% | viability, T/C [3]: 5.08% | viability, T/C (second compound 0.316 µM, first compound 0.0001 µM): 20.8% | viability, T/C (second compound 0.316 µM, first compound 0.000316 µM): 12.2% | viability, T/C (second compound 0.316 µM, first compound 0.001 µM): 9.67% | viability, T/C [4]: 7.39% | viability, T/C [5]: 7.29% | viability, T/C [6]: 5.28% | viability, T/C (second compound 1 µM, first compound 0.0001 µM): 17% | viability, T/C (second compound 1 µM, first compound 0.000316 µM): 8.66% | viability, T/C (second compound 1 µM, first compound 0.001 µM): 7.27% | viability, T/C [7]: 5.84% | viability, T/C [8]: 5.69% | viability, T/C [9]: 4.51% | viability, T/C (second compound 3.16 µM, first compound 0.0001 µM): 0.05% | viability, T/C (second compound 3.16 µM, first compound 0.000316 µM): 0.03% | viability, T/C (second compound 3.16 µM, first compound 0.001 µM): 0.02% | viability, T/C [10]: 0.02% | viability, T/C [11]: 0.1% | viability, T/C [12]: 0.08% | viability, T/C (second compound 10 µM, first compound 0.0001 µM): 0.13% | viability, T/C (second compound 10 µM, first compound 0.000316 µM): 0.08% | viability, T/C (second compound 10 µM, first compound 0.001 µM): 0.07% | viability, T/C (second compound 10 µM, first compound 0.00316 µM): 0.07% | viability, T/C (second compound 10 µM, first compound 0.01 µM): 0.08% | viability, T/C [13]: 0.13%

CC(C)NCC(C(=O)N1CCN(c2ncnc3c2C(C)CC3O)CC1)c1ccc(Cl)cc1 (stereo not given) + COc1cc2nc(C)nc(NC(C)c3cc(N)cc(C(F)(F)F)c3)c2cc1OC1CCOC1
IC50 (second compound 0.1 µM): 0.279 µM | IC50 (second compound 0.316 µM): 0.27 µM | IC50 (second compound 1 µM): 0.178 µM | IC50 (second compound 3.16 µM): 0.146 µM | IC50 (second compound 10 µM): < 0.0316 µM | viability, T/C [3]: 98.1% | viability, T/C [14]: 73% | viability, T/C [15]: 49.4% | viability, T/C [16]: 23.1% | viability, T/C [17]: 10.2% | viability, T/C [18]: 6.37% | viability, T/C [6]: 85.4% | viability, T/C [19]: 77% | viability, T/C [20]: 44.8% | viability, T/C [21]: 18.9% | viability, T/C [22]: 7.59% | viability, T/C [23]: 6.32% | viability, T/C [9]: 93% | viability, T/C [24]: 66.4% | viability, T/C [25]: 31.4% | viability, T/C [26]: 22% | viability, T/C [27]: 6.85% | viability, T/C [28]: 3.87% | viability, T/C [12]: 71.9% | viability, T/C [29]: 58.3% | outcome [30]: inactive | viability, T/C [31]: 13.9% | viability, T/C [32]: 6.58% | viability, T/C [33]: 5.75% | viability, T/C [13]: 26.9% | viability, T/C [34]: 20.7% | viability, T/C [35]: 7.61% | viability, T/C [36]: 3.94% | viability, T/C [37]: 1.89% | viability, T/C [38]: 2.67%

CC1OCC2(CCN(c3cnc(Sc4ccnc(N)c4Cl)c(N)n3)CC2)C1N (stereo not given) + C=CC(=O)N1CCN(c2nc(=O)n(-c3c(C)ccnc3C(C)C)c3nc(-c4c(O)cccc4F)c(F)cc23)C(C)C1
IC50 (second compound 0.1 µM): > 10 µM | IC50 (second compound 0.316 µM): > 10 µM | IC50 (second compound 1 µM): > 10 µM | IC50 (second compound 3.16 µM): > 10 µM | IC50 (second compound 10 µM): < 0.0316 µM | viability, T/C [3]: 109% | viability, T/C [14]: 79.5% | viability, T/C [15]: 110% | viability, T/C [16]: 90% | viability, T/C [17]: 76% | viability, T/C [18]: 74.5% | viability, T/C [6]: 87.3% | viability, T/C [19]: 94.9% | viability, T/C [20]: 90.2% | viability, T/C [21]: 100% | viability, T/C [22]: 96.4% | viability, T/C [23]: 78.5% | viability, T/C [9]: 82% | viability, T/C [24]: 106% | viability, T/C [25]: 96.3% | viability, T/C [26]: 78.6% | viability, T/C [27]: 95.5% | viability, T/C [28]: 73.8% | viability, T/C [12]: 70.2% | viability, T/C [29]: 71.1% | viability, T/C [30]: 72.6% | viability, T/C [31]: 63.2% | viability, T/C [32]: 68% | viability, T/C [33]: 60.2% | viability, T/C [13]: 30.3% | viability, T/C [34]: 33.1% | viability, T/C [35]: 23.9% | viability, T/C [36]: 25% | viability, T/C [37]: 28% | viability, T/C [38]: 21.9%

CCN1CCN(Cc2ccc(Nc3ncc(F)c(-c4cc(F)c5nc(C)n(C(C)C)c5c4)n3)nc2)CC1 + C=CC(=O)N1CCN(c2nc(OCC3CCCN3C)nc3c2CCN(c2cccc4cccc(C)c24)C3)CC1CC#N
IC50 (second compound 0.0316 µM): 0.00451 µM | IC50 (second compound 0.1 µM): 0.00676 µM | IC50 (second compound 0.316 µM): 0.006 µM | IC50 (second compound 1 µM): < 0.00316 µM | IC50 (second compound 3.16 µM): < 0.00316 µM | viability, T/C (second compound 0.0316 µM, first compound 0.00316 µM): 56% | viability, T/C (second compound 0.0316 µM, first compound 0.01 µM): 37.7% | viability, T/C (second compound 0.0316 µM, first compound 0.0316 µM): 19.3% | viability, T/C (second compound 0.0316 µM, first compound 0.1 µM): 16.6% | viability, T/C (second compound 0.0316 µM, first compound 0.316 µM): 14.1% | viability, T/C (second compound 0.0316 µM, first compound 1 µM): 4.49% | viability, T/C [1]: 80.7% | viability, T/C [2]: 31.3% | viability, T/C [3]: 20.2% | viability, T/C [14]: 15.4% | viability, T/C [15]: 10.2% | viability, T/C [16]: 3.97% | viability, T/C [4]: 64.8% | viability, T/C [5]: 40.2% | viability, T/C [6]: 15.8% | viability, T/C [19]: 19.1% | viability, T/C [20]: 10.4% | viability, T/C [21]: 2.4% | viability, T/C [7]: 46.1% | viability, T/C [8]: 24.9% | viability, T/C [9]: 15.2% | viability, T/C [24]: 12.4% | viability, T/C [25]: 8.99% | viability, T/C [26]: 0.45% | viability, T/C [10]: 0.15% | viability, T/C [11]: 0.09% | viability, T/C [12]: 0.07% | viability, T/C [29]: 0.08% | viability, T/C [30]: 0.08% | viability, T/C [31]: 0.19%
